Data: patent US8686023B2, “Salts of sunitinib” (Lek Pharmaceuticals D.D., priority 2008, dated 2014)

With sunitinib L-malate the “Solubility of sunitinib salts in water at 25° C.” value was 2000 µg/mL.
